# Square brackets hold non-standard residues; d marks the D form. Peptide text beside a SMILES is read from it. 2Nal = N[C@@H](Cc1ccc2ccccc2c1)C(=O)O; pGlu = O=C1CC[C@@H](C(=O)O)N1
# Legend:
# [1] = molecular target: T1, Corticotropin-releasing factor receptor 1 (Mus musculus, UniProt P35347); assay: In vitro effective concentration for mouse corticotropin releasing factor 1 receptor
# T1 sequence (P35347 whole entry): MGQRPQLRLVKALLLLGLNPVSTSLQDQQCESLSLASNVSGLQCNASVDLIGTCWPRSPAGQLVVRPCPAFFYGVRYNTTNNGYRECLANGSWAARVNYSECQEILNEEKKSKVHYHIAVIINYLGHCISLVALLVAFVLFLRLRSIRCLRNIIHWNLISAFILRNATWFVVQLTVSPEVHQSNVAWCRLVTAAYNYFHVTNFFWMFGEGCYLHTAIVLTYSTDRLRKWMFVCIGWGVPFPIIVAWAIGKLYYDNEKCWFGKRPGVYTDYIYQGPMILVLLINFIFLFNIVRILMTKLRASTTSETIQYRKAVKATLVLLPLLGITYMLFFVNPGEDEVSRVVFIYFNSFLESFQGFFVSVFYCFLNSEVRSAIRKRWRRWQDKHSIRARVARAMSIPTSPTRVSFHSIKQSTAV
# [2] = molecular target: Corticotropin-releasing factor receptor 2 (Mus musculus, UniProt Q60748); assay: In vitro effective concentration for mouse corticotropin releasing factor 2 receptor
# Corticotropin-releasing factor receptor 2, sequence (Q60748 whole entry): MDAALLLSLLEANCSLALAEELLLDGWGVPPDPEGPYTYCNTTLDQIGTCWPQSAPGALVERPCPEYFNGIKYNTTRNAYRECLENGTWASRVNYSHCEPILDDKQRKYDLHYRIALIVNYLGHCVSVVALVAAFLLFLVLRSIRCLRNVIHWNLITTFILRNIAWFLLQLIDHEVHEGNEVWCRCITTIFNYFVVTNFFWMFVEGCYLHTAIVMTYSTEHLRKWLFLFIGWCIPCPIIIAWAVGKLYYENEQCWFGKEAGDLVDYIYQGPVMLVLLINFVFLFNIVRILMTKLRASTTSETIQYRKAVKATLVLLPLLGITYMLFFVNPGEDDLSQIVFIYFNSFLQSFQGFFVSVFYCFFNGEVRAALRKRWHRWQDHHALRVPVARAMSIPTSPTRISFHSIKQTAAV
SMILES,EC50 [1] [nM],EC50 [2] [nM]
CC[C@H](C)[C@H](NC(=O)[C@@H](NC(=O)[C@H](CC(=O)O)NC(=O)[C@H](CC(C)C)NC(=O)[C@H](CC(C)C)NC(=O)[C@H](CC(C)C)NC(=O)[C@H](CCCNC(=N)N)NC(=O)[C@H](CC(N)=O)NC(=O)[C@H](CC(N)=O)NC(=O)[C@H](C)NC(=O)[C@H](C)NC(=O)[C@H](CCC(N)=O)NC(=O)[C@H](CCC(N)=O)NC(=O)[C@H](CCCCN)NC(=O)[C@H](CCC(=O)O)NC(=O)[C@H](CCCCN)NC(=O)[C@H](CCC(=O)O)NC(=O)[C@H](CCC(N)=O)NC(=O)[C@H](CCCCN)NC(=O)[C@H](CCC(=O)O)NC(=O)[C@@H](NC(=O)[C@H](CCC(=O)O)NC(=O)[C@@H](NC(=O)[C@H](CCSC)NC(=O)[C@H](CCCCN)NC(=O)[C@H](CCCNC(=N)N)NC(=O)[C@H](CC(C)C)NC(=O)[C@H](CC(C)C)NC(=O)[C@H](Cc1ccc(O)cc1)NC(=O)[C@H](Cc1ccc(O)cc1)NC(=O)[C@@H]1CCCN1C(=O)[C@H](CC(C)C)NC(=O)[C@H](CC(=O)O)NC(=O)[C@@H](NC(=O)[C@H](CO)NC(=O)[C@@H](NC(=O)[C@@H]1CCCN1C(=O)[C@@H]1CCCN1C(=O)CNC(=O)[C@@H]1CCC(=O)N1)[C@@H](C)CC)[C@@H](C)CC)[C@@H](C)CC)[C@@H](C)CC)[C@@H](C)O)C(=O)O,102,7
CC[C@H](C)[C@H](NC(=O)[C@@H](NC(=O)[C@H](CC(=O)O)NC(=O)[C@H](CC(C)C)NC(=O)[C@H](CC(C)C)NC(=O)[C@H](CC(C)C)NC(=O)[C@H](CCCNC(=N)N)NC(=O)[C@H](CC(N)=O)NC(=O)[C@H](CC(N)=O)NC(=O)[C@H](C)NC(=O)[C@H](C)NC(=O)[C@H](CCC(N)=O)NC(=O)[C@H](CCC(N)=O)NC(=O)[C@H](CCCCN)NC(=O)[C@H](CCC(=O)O)NC(=O)[C@H](CCCCN)NC(=O)[C@H](CCC(=O)O)NC(=O)[C@H](CCC(N)=O)NC(=O)[C@H](CCCCN)NC(=O)[C@H](CCC(=O)O)NC(=O)[C@@H](NC(=O)[C@H](CCC(=O)O)NC(=O)[C@@H](NC(=O)[C@H](CCSC)NC(=O)[C@H](CCCCN)NC(=O)[C@H](CCCNC(=N)N)NC(=O)[C@H](CC(C)C)NC(=O)[C@H](CC(C)C)NC(=O)CNC(=O)[C@H](CC(C)C)NC(=O)[C@@H]1CCCN1C(=O)[C@H](CC(C)C)NC(=O)[C@H](CC(=O)O)NC(=O)[C@@H](NC(=O)[C@H](CO)NC(=O)[C@@H](NC(=O)[C@@H]1CCCN1C(=O)[C@@H]1CCCN1C(=O)CNC(=O)[C@@H]1CCC(=O)N1)[C@@H](C)CC)[C@@H](C)CC)[C@@H](C)CC)[C@@H](C)CC)[C@@H](C)O)C(=O)O ([pGlu]GPPISIDLPLGLLRKMIEIEKQEKEKQQAANNRLLLDTI-OH),312,21.6
CC[C@H](C)[C@H](NC(=O)[C@@H](NC(=O)[C@H](CC(=O)O)NC(=O)[C@H](CC(C)C)NC(=O)[C@H](CC(C)C)NC(=O)[C@H](CC(C)C)NC(=O)[C@H](CCCNC(=N)N)NC(=O)[C@H](CC(N)=O)NC(=O)[C@H](CC(N)=O)NC(=O)[C@H](C)NC(=O)[C@H](C)NC(=O)[C@H](CCC(N)=O)NC(=O)[C@H](CCC(N)=O)NC(=O)[C@H](CCCCN)NC(=O)[C@H](CCC(=O)O)NC(=O)[C@H](CCCCN)NC(=O)[C@H](CCC(=O)O)NC(=O)[C@H](CCC(N)=O)NC(=O)[C@H](CCCCN)NC(=O)[C@H](CCC(=O)O)NC(=O)[C@@H](NC(=O)[C@H](CCC(=O)O)NC(=O)[C@@H](NC(=O)[C@H](CCSC)NC(=O)[C@H](CCCCN)NC(=O)[C@H](CCCNC(=N)N)NC(=O)[C@H](CC(C)C)NC(=O)[C@H](CC(C)C)NC(=O)[C@H](CCC(=O)O)NC(=O)[C@H](CC(C)C)NC(=O)[C@@H]1CCCN1C(=O)[C@H](CC(C)C)NC(=O)[C@H](CC(=O)O)NC(=O)[C@@H](NC(=O)[C@H](CO)NC(=O)[C@@H](NC(=O)[C@@H]1CCCN1C(=O)[C@@H]1CCCN1C(=O)CNC(=O)[C@@H]1CCC(=O)N1)[C@@H](C)CC)[C@@H](C)CC)[C@@H](C)CC)[C@@H](C)CC)[C@@H](C)O)C(=O)O,96,10.9
CC[C@H](C)[C@H](NC(=O)[C@@H](NC(=O)[C@H](CC(=O)O)NC(=O)[C@H](CC(C)C)NC(=O)[C@H](CC(C)C)NC(=O)[C@H](CC(C)C)NC(=O)[C@H](CCCNC(=N)N)NC(=O)[C@H](CC(N)=O)NC(=O)[C@H](CC(N)=O)NC(=O)[C@H](C)NC(=O)[C@H](C)NC(=O)[C@H](CCC(N)=O)NC(=O)[C@H](CCC(N)=O)NC(=O)[C@H](CCCCN)NC(=O)[C@H](CCC(=O)O)NC(=O)[C@H](CCCCN)NC(=O)[C@H](CCC(=O)O)NC(=O)[C@H](CCC(N)=O)NC(=O)[C@H](CCCCN)NC(=O)[C@H](CCC(=O)O)NC(=O)[C@@H](NC(=O)[C@H](CCC(=O)O)NC(=O)[C@@H](NC(=O)[C@H](CCSC)NC(=O)[C@H](CCCCN)NC(=O)[C@H](CCCNC(=N)N)NC(=O)[C@H](CC(C)C)NC(=O)[C@H](CC(C)C)NC(=O)[C@H](Cc1ccc2ccccc2c1)NC(=O)[C@H](C)NC(=O)[C@@H]1CCCN1C(=O)[C@H](CC(C)C)NC(=O)[C@H](CC(=O)O)NC(=O)[C@@H](NC(=O)[C@H](CO)NC(=O)[C@@H](NC(=O)[C@@H]1CCCN1C(=O)[C@@H]1CCCN1C(=O)CNC(=O)[C@@H]1CCC(=O)N1)[C@@H](C)CC)[C@@H](C)CC)[C@@H](C)CC)[C@@H](C)CC)[C@@H](C)O)C(=O)O ([pGlu]GPPISIDLPA[2Nal]LLRKMIEIEKQEKEKQQAANNRLLLDTI-OH),582,13.3
CC[C@H](C)[C@H](NC(=O)[C@@H](NC(=O)[C@H](CC(=O)O)NC(=O)[C@H](CC(C)C)NC(=O)[C@H](CC(C)C)NC(=O)[C@H](CC(C)C)NC(=O)[C@H](CCCNC(=N)N)NC(=O)[C@H](CC(N)=O)NC(=O)[C@H](CC(N)=O)NC(=O)[C@H](C)NC(=O)[C@H](C)NC(=O)[C@H](CCC(N)=O)NC(=O)[C@H](CCC(N)=O)NC(=O)[C@H](CCCCN)NC(=O)[C@H](CCC(=O)O)NC(=O)[C@H](CCCCN)NC(=O)[C@H](CCC(=O)O)NC(=O)[C@H](CCC(N)=O)NC(=O)[C@H](CCCCN)NC(=O)[C@H](CCC(=O)O)NC(=O)[C@@H](NC(=O)[C@H](CCC(=O)O)NC(=O)[C@@H](NC(=O)[C@H](CCSC)NC(=O)[C@H](CCCCN)NC(=O)[C@H](CCCNC(=N)N)NC(=O)[C@H](CC(C)C)NC(=O)[C@H](CC(C)C)NC(=O)[C@@H](NC(=O)[C@H](CC(C)C)NC(=O)[C@@H]1CCCN1C(=O)[C@H](CC(C)C)NC(=O)[C@H](CC(=O)O)NC(=O)[C@@H](NC(=O)[C@H](CO)NC(=O)[C@@H](NC(=O)[C@@H]1CCCN1C(=O)[C@@H]1CCCN1C(=O)CNC(=O)[C@@H]1CCC(=O)N1)[C@@H](C)CC)[C@@H](C)CC)C(C)C)[C@@H](C)CC)[C@@H](C)CC)[C@@H](C)O)C(=O)O,265,5.5

# Stronger by EC50 [1], values ahead:
EC50 [1] [nM],EC50 [2] [nM],SMILES
76.2,5.2,CC[C@H](C)[C@H](NC(=O)[C@@H](NC(=O)[C@H](CC(=O)O)NC(=O)[C@H](CC(C)C)NC(=O)[C@H](CC(C)C)NC(=O)[C@H](CC(C)C)NC(=O)[C@H](CCCNC(=N)N)NC(=O)[C@H](CC(N)=O)NC(=O)[C@H](CC(N)=O)NC(=O)[C@H](C)NC(=O)[C@H](C)NC(=O)[C@H](CCC(N)=O)NC(=O)[C@H](CCC(N)=O)NC(=O)[C@H](CCCCN)NC(=O)[C@H](CCC(=O)O)NC(=O)[C@H](CCCCN)NC(=O)[C@H](CCC(=O)O)NC(=O)[C@H](CCC(N)=O)NC(=O)[C@H](CCCCN)NC(=O)[C@H](CCC(=O)O)NC(=O)[C@@H](NC(=O)[C@H](CCC(=O)O)NC(=O)[C@@H](NC(=O)[C@H](CCSC)NC(=O)[C@H](CCCCN)NC(=O)[C@H](CCCNC(=N)N)NC(=O)[C@H](CC(C)C)NC(=O)[C@H](CC(C)C)NC(=O)[C@H](CC(C)C)NC(=O)[C@H](Cc1ccc(O)cc1)NC(=O)[C@@H]1CCCN1C(=O)[C@H](CC(C)C)NC(=O)[C@H](CC(=O)O)NC(=O)[C@@H](NC(=O)[C@H](CO)NC(=O)[C@@H](NC(=O)[C@@H]1CCCN1C(=O)[C@@H]1CCCN1C(=O)CNC(=O)[C@@H]1CCC(=O)N1)[C@@H](C)CC)[C@@H](C)CC)[C@@H](C)CC)[C@@H](C)CC)[C@@H](C)O)C(=O)O
67.9,4.3,CC[C@H](C)[C@H](NC(=O)[C@@H](NC(=O)[C@H](CC(=O)O)NC(=O)[C@H](CC(C)C)NC(=O)[C@H](CC(C)C)NC(=O)[C@H](CC(C)C)NC(=O)[C@H](CCCNC(=N)N)NC(=O)[C@H](CC(N)=O)NC(=O)[C@H](CC(N)=O)NC(=O)[C@H](C)NC(=O)[C@H](C)NC(=O)[C@H](CCC(N)=O)NC(=O)[C@H](CCC(N)=O)NC(=O)[C@H](CCCCN)NC(=O)[C@H](CCC(=O)O)NC(=O)[C@H](CCCCN)NC(=O)[C@H](CCC(=O)O)NC(=O)[C@H](CCC(N)=O)NC(=O)[C@H](CCCCN)NC(=O)[C@H](CCC(=O)O)NC(=O)[C@@H](NC(=O)[C@H](CCC(=O)O)NC(=O)[C@@H](NC(=O)[C@H](CCSC)NC(=O)[C@H](CCCCN)NC(=O)[C@H](CCCNC(=N)N)NC(=O)[C@H](CC(C)C)NC(=O)[C@H](CC(C)C)NC(=O)[C@H](Cc1ccc(O)cc1)NC(=O)[C@H](CC(C)C)NC(=O)[C@@H]1CCCN1C(=O)[C@H](CC(C)C)NC(=O)[C@H](CC(=O)O)NC(=O)[C@@H](NC(=O)[C@H](CO)NC(=O)[C@@H](NC(=O)[C@@H]1CCCN1C(=O)[C@@H]1CCCN1C(=O)CNC(=O)[C@@H]1CCC(=O)N1)[C@@H](C)CC)[C@@H](C)CC)[C@@H](C)CC)[C@@H](C)CC)[C@@H](C)O)C(=O)O ([pGlu]GPPISIDLPLYLLRKMIEIEKQEKEKQQAANNRLLLDTI-OH)

# Source: ChEMBL document CHEMBL1139487, “Discovery of corticotropin releasing factor 2 receptor selective sauvagine analogues for treatment of skeletal muscle atrophy” (J Med Chem, 2005)
